Tests used:
[1] = design: species or system Male GK rats; conditions: rat, in vivo
From the text: It has been supposed that the increase of the amount of fat intake in the last few decades is one of the causes of the recent increase of the number of patients with NASH. Therefore, the effect of L-alanine on the hepatic triglyceride contents in the high-fat diet (hereinafter HFD)-induced fatty liver rat model. Male GK rats (9 weeks of age, 6 rats per group) received HFD (containing 30% beef tallow) for 6 weeks.

[2] = tested on: choline-deficient diet (hereinafter CDD) rat model; test: Choline-deficient diet (CDD) rat model showing NASH-like pathological change in the liver; assay type: in vivo, Male Wistar rats
From the text: Male Wistar rats (7 weeks of age, 5 rats per group) received CDD (Dyets Co.) for 4 weeks. […] On the other hand, in the group of 5 rats received CDD mixed with 4% L-alanine for 4 weeks, one rat is normalized in liver weight (10.6g).

[3] = tested on: HFD-induced fatty liver rat model; test: High-fat diet (HFD)-induced fatty liver rat model, hepatic triglyceride contents; assay type: in vivo, Male GK rats; conditions: diet mixed with 4% L-alanine for 6 weeks; one rat of 6, in the level of SD group
Experimental: It has been supposed that the increase of the amount of fat intake in the last few decades is one of the causes of the recent increase of the number of patients with NASH. Therefore, the effect of L-alanine on the hepatic triglyceride contents in the high-fat diet (hereinafter HFD)-induced fatty liver rat model. Male GK rats (9 weeks of age, 6 rats per group) received HFD (containing 30% beef tallow) for 6 weeks. Triglyceride contents in the liver tissue was increased to 29.1 to 49.3 mg per gram of liver tissue, compared with those (14.1 to 24.2 mg) in the group fed with standard diet (containing 5% soy-been oil; hereinafter SD). Pioglitazone is a drug, which acts as an insulin-sensitizer for the patients with diabetes. Recent clinical pilot studies raise the possibility of clinical utility of pioglitazone for NASH. […] On the other hand, in the group of 6 rats received […] mixed with 4% L-alanine for 6 weeks, one rat is reduced in the liver triglyceride contents (19.6 mg) in the level of SD group. In addition, weight gain was reported as the main side effect in a pilot clinical study of piogritazone for NASH.

Structure (SMILES) | Body Weight (g) Post (at 6 weeks) [1] | Body Weight (g) Pre [1] | liver weight ([2]; CDD mixed with 4% L-alanine for 4 weeks, one rat of 5 (normalized), CDD alone 14.5 to 20.0 g) | macrovesicular hepatic steatosis / histological fat accumulation in the liver ([2]; CDD mixed with drug for 4 weeks, histological examination, UDCA all of 5 rats, L-alanine the one rat of 5 with normalized liver weight) | liver triglyceride contents [3]
C[C@H](N)C(=O)O [L-alanine] | 331.8 ± 20.5 g | 219.8 ± 13.0 g | 10.6 g | not recognized | 19.6 mg
CCc1ccc(CCOc2ccc(CC3SC(=O)NC3=O)cc2)nc1 (stereo not drawn) [pioglitazone, reference compound] |  | 222.1 ± 9.9 g |  |  | 
